Where two headings read alike, the source gives them in different places.
What was measured:
[1] = biological target: T1, human Kv4.3/KChIP2.2 potassium channel (Homo sapiens, UniProt Q9UK17); assay: Whole cell patch clamp, CHO-K1 cells stably expressing Kv4.3/KChIP2.2; type: cell-based; conditions: CHO-K1, 1 μM
T1 construct: expressed in transfected cells
T1 sequence (Q9UK17 1-655): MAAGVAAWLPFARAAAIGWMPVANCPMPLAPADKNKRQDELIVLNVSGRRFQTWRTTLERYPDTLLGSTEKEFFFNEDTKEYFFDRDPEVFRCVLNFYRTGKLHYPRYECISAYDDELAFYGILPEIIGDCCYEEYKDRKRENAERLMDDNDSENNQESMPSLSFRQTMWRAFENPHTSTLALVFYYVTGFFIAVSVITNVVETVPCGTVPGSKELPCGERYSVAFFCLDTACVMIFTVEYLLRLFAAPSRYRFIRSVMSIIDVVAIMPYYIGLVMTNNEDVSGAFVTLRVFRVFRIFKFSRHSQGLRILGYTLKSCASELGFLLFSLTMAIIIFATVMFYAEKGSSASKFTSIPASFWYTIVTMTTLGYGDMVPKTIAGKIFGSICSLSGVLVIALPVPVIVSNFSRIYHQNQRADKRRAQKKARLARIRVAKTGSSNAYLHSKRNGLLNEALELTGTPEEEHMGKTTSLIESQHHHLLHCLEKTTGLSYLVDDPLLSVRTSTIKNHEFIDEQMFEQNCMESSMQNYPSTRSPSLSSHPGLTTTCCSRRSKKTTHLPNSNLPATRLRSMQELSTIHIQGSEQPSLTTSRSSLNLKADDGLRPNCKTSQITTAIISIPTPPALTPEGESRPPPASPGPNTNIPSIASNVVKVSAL
T1 sequence (Q9NS61 1-270 partner): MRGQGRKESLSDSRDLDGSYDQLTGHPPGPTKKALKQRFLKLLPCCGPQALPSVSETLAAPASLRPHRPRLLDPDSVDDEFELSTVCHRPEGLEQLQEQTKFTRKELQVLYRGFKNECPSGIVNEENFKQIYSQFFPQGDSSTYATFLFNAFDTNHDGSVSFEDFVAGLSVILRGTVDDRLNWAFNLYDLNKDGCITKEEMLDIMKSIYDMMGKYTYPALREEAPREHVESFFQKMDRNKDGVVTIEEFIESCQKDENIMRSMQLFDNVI
Experimental: For this experiment, a recombinant CHO-K1 cell line stably expressing the human Kv4.3/KChIP2.2 potassium channel was used.
Protocol B: The cells were cultured in 94 mm culture dishes under the culturing conditions of 5% CO2 and 37° C. Subculturing was performed every 3-4 days, by removing the media and then rising the dish with 8 ml PBS (phosphate buffered saline). The PBS was removed and 1 ml Trypsin/EDTA was added to the cells. The cells were incubated about 2 min at 37° C. or 5 min at room temperature and then the dish was rapped to detach and singularize the cells. To inactivate the enzyme 9 ml of media was added and the solution was pipetted up and down to break up clumps of cells. Part of the suspension was then transferred to a new 94 mm dish and media was added to a final volume of 8 ml. If necessary the cells could be seeded onto 35 mm or 94 mm dishes (2 ml media per 35 mm dish and 8 ml media per 94 mm dish). The media was changed every 2-3 days. The media used was the solution for culturing the cells described above. For stable cells antibiotic G418, Hygromycin, Blasticidin, or Zeocin were not added.
The preparation of cells for electrophysiological experiments was performed as described in protocol C hereunder.
Protocol C: The transfected cells and stable cells were transferred from 35 mm cell culture dishes onto coverslips using cold PBS: The media was removed and 0.3 ml of PBS (4-10° C.) was added. The cells were incubated 5 min at room temperature. The dish was rapped to detach and singularize the cells and 1.7 ml media was added and the solution pipetted up and down to break up clumps of cells. Part of the cell suspension was then transferred to a 35 mm dish with coverslips and media. The transfected cells and stable cells could also be transferred from 35 mm cell culture dishes onto coverslips using trypsin: The media was removed and the dish rinsed with 3 ml PBS. The PBS was removed and 0.3 ml 1× Trypsin/EDTA was added and the cells incubated 5 min at room temperature. The dish was rapped to detach and singularize the cells and 1.7 ml media was added and the solution pipetted up and down to break up clumps of cells. Part of the cell suspension was then transferred to a 35 mm dish with coverslips and media.
10 mM stock solutions of the compounds were prepared in DMSO. Solutions of the compounds were prepared by dilution of stock solution in bath solution. If the required stock solution volume was theoretically below 1 μl, bath solutions with higher compound concentration were used for dilution. The maximal DMSO concentration during experiments was 0.1% (v/v).
For patch clamp experiments, the following solutions in demineralized water as vehicle were used (concentration in mM).
Bath (external) solution: 4 KCl, 135 NaCl, 2 CaCl2, 1 MgCl2, 10 D(+)-Glucose, 5 HEPES, pH 7.4 (NaOH).
Pipette (internal) solution: 130 KCl, 1 MgCl2, 10 EGTA, 5 Na2ATP, 5 HEPES, pH 7.4 (KOH).
Experiments were performed using a patch clamp set-up.
Measurements were performed at room temperature (20-25° C.). […] Each cell acted as its own control. The effect of compounds on Kv4.3/KChIP2.2 mediated currents was investigated at one concentration ([…]) with two replicates each (c=1, n=2).
The test protocols are illustrated in FIG. 1 and Table 4. […] Each test protocol consisted of 4 segments.
Subsequently, 14 test pulses (series 1; FIG. 1b and Table 4b) were applied at 0.1 Hz under constant superfusion with bath solution. The protocol was initiated by a voltage jump to −100 mV (400 ms) to achieve full inactivation. Then the Kv4.3/KChIP2.2 channels were transferred to the open state by depolarization to +40 mV for 300 milliseconds (activation). Only cells generating current amplitudes between 1 nA and 50 nA were used for the experimental procedure. No or negligible rundown was observed.
Then, 36 test pulses (series 2) were applied at 0.1 Hz under constant superfusion with the compound dissolved in bath solution. […]

[2] = read-out: Kv4.3 charge in %: remaining current measured after application of the compound and relative to the blank
[3] = read-out: Kv4.3 peak in %: remaining peak height measured after application of the compound and relative to the blank

Cc1cccc(Cl)c1CNC(=O)c1cc2cc(Cl)ccc2o1 [Compound 62, 5-chloro-benzofuran-2-carboxylic acid 2-chloro-6-methyl-benzylamide]
remaining activity at 1 µM [1, 2]: 39% | remaining activity at 1 µM [1, 3]: 86% | melting point: 168.3 to 168.7 °C

COc1ccc(CNC(=O)c2cc3cc(Cl)ccc3o2)c(O)c1 [Compound 108, 5-chloro-benzofuran-2-carboxylic acid 2-hydroxy-4-methoxy-benzylamide]
remaining activity at 1 µM [1, 2]: 85% | remaining activity at 1 µM [1, 3]: 99% | melting point: 173.8 to 176.2 °C

O=C(NCc1cccs1)c1cc2cc(Cl)ccc2o1 [Compound 39, 5-chloro-benzofuran-2-carboxylic acid 4-(thiophen-2-ylmethyl)-amide]
remaining activity at 1 µM [1, 2]: 90% | remaining activity at 1 µM [1, 3]: 91% | melting point: 148.4 to 149.9 °C

O=C(c1cc2cc(Cl)ccc2o1)N1CC=C(c2ccc(F)cc2)CC1 [Compound 93, (5-chloro-benzofuran-2-yl)-[4-(4-fluoro-phenyl)-3,6-dihydro-2H-pyridin-1-yl]-methanone]
remaining activity at 1 µM [1, 2]: 73% | remaining activity at 1 µM [1, 3]: 89% | melting point: 111.3 to 116.6 °C

Cc1ccc(CNC(=O)c2cc3cc(Cl)ccc3o2)cc1 [Compound 36, 5-chloro-benzofuran-2-carboxylic acid 4-methyl-benzylamide]
remaining activity at 1 µM [1, 2]: 72% | remaining activity at 1 µM [1, 3]: 89% | melting point: 161.9 to 162.9 °C

O=C(c1cc2cc(Cl)ccc2o1)N1CCCC1c1ccc(F)cc1 (centres unmarked) [Compound 104, (5-chloro-benzofuran-2-yl)-[2-(4-fluoro-phenyl)-pyrrolidin-1-yl]-methanone]
melting point: 104.4 to 106.1 °C

CSc1ccc(CNC(=O)c2cc3cc(Cl)ccc3o2)cc1 [Compound 61, 5-chloro-benzofuran-2-carboxylic acid 4-methylsulfanyl-benzylamide]
melting point: 159 to 161 °C

COC(=O)c1cccc(CNC(=O)c2cc3cc(Cl)ccc3o2)c1 [Compound 65, 5-{[(5-chloro-benofuran-2-carbonyl)-amino]-methyl}-benzoic acid methyl ester]
melting point: 154 to 155.6 °C

O=C(NCc1ccc(F)c(C(F)(F)F)c1)c1cc2ccccc2o1 [Compound 50, benzofuran-2-carboxylic acid 4-fluoro-3-trifluoromethyl-benzylamide]
melting point: 89.5 to 91.6 °C

O=C(NCc1ccc(Oc2ccccc2)cc1)c1cc2cc(Cl)ccc2o1 [Compound 68, 5-chloro-benzofuran-2-carboxylic acid 4-phenoxy-benzylamide]
melting point: 93.6 to 95.5 °C

Cc1ccccc1CNC(=O)c1cc2cc(Cl)ccc2o1 [Compound 69, 5-chloro-benzofuran-2-carboxylic acid 2-methyl-benzylamide]
melting point: 141.8 to 143 °C

O=C(c1ccc(F)cc1)C1CCN(C(=O)c2cc3cc(Cl)ccc3o2)CC1 [Compound 102]
melting point: 135 to 137.1 °C

Cc1ccc(C)c(CNC(=O)c2cc3cc(Cl)ccc3o2)c1 [Compound 90, 5-chloro-benzofuran-2-carboxylic acid 2,5-dimethyl-benzylamide]
melting point: 123.1 to 124 °C

O=C(NCc1cccc(-c2ccccc2)c1)c1cc2cc(Cl)ccc2o1 [Compound 73, 5-chloro-benzofuran-2-carboxylic acid (biphenyl-3-ylmethyl)-amide]
melting point: 130.4 to 131 °C

Cc1cccc(CNC(=O)c2cc3cc(Cl)ccc3o2)c1 [Compound 70, 5-chloro-benzofuran-2-carboxylic acid 3-methyl-benzylamide]
melting point: 148.4 to 149.4 °C

CC[C@@H](NC(=O)c1cc2cc(Cl)ccc2o1)c1ccccc1 [Compound 58, 5-chloro-benzofuran-2-carboxylic acid ((R)-1-phenyl-propyl)-amide]
melting point: 118.5 to 120.7 °C

Cc1cccc(Cl)c1CNC(=O)c1sc2ccc(Cl)cc2c1C [Compound 110, 5-chloro-3-methyl-benzo[b]thiophene-2-carboxylic acid 2-chloro-6-methyl-benzylamide]
melting point: 180.5 to 182 °C

O=C(NCc1ccc(-c2cnns2)cc1)c1cc2cc(Cl)ccc2o1 [Compound 91, 5-chloro-benzofuran-2-carboxylic acid 4-[1,2,3]thiadiazol-5-yl-benzylamide]
melting point: 178.1 to 181.8 °C

O=C(NC1CCc2ccccc21)c1cc2cc(Cl)ccc2o1 (centres unmarked) [Compound 94, 5-chloro-benzofuran-2-carboxylic acid indan-1-ylamide]
melting point: 161.4 to 164.1 °C

O=C(c1cc2cc(Cl)ccc2o1)N1CCC(Cc2ccccc2)CC1 [Compound 101, (4-benzyl-piperidin-1-yl)-(5-chloro-benzofuran-2-yl)-methanone]
melting point: 114.6 to 116.2 °C

COC(=O)[C@H](NC(=O)c1cc2cc(Cl)ccc2o1)c1ccccc1 [Compound 84, (R)-[(5-chloro-benzofuran-2-carbonyl)-amino]-phenyl-acetic acid methyl ester]
melting point: 147.9 °C

COc1ccc(CNC(=O)c2cc3cc(Cl)ccc3[nH]2)c(OC)c1 [Compound 111, 5-chloro-1H-indole-2-carboxylic acid 2,4-dimethoxy-benzylamide]
melting point: 205.7 to 209.3 °C

COc1ccc(CNC(=O)c2oc3ccc(Cl)cc3c2NC(C)=O)c(OC)c1 [Compound 115, 3-acetylamino-5-chloro-benzofuran-2-carboxylic acid 2,4-dimethoxy-benzylamide]
melting point: 165.5 to 170.3 °C

COc1ccc(CNC(=O)c2ccc3ccccc3n2)c(OC)c1 [Compound 112, quinolin-2-carboxylic acid 2,4-dimethoxy-benzylamide]
melting point: 93.9 to 95.4 °C

Cc1cc(Cl)cc(Cl)c1CNC(=O)c1cc2cc(Cl)ccc2o1 [Compound 119, 5-chloro-benzofuran-2-carboxylic acid 2,4-dichloro-6-methyl-benzylamide]
melting point: 210 to 212 °C
